In patent publication US8772323B2, “Benzoxazole- and tetrahydrobenzoxazole-substituted pyridazinones as GPR119 agonists” (Boehringer Ingelheim International GmbH, priority 2010, dated 2014) one finds EC50 data, which are given here for 27 compounds.

Structures can show the parent of a compound that is named as a salt. Bounds are passed on as bounds.

Sequence of human GPR119 (Q8TDV5 whole entry): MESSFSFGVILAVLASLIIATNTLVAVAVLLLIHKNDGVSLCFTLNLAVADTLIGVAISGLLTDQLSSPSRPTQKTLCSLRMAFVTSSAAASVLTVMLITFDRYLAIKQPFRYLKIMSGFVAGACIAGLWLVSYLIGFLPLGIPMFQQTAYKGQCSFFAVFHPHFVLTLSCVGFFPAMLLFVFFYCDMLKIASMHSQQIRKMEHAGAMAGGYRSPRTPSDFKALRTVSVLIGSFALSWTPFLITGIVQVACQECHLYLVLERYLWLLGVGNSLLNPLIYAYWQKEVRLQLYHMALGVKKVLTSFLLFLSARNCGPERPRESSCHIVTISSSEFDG

The assay addresses human GPR119 (Homo sapiens (Human), UniProt Q8TDV5). The assay can be described thus: AlphaScreen cAMP assay in Min-6/hGPR119 cells (GPR119 activation, intracellular cAMP). It is filed as cell-based. The following applies: MIN6 cells stably transfected with human GPR119; 45 minutes' incubation at RT; AlphaScreen cAMP Assay Kit. Summed up:
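MIN6 cells stably expressing human GPR119 plated 10000 cells/well and held 24 h at 37° C. Compounds applied in stimulating buffer, pH 7.4, with 0.5 mM IBMX, 0.1% BSA, 1% DMSO final, for 45 min at RT. Intracellular cAMP read by AlphaScreen.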
In general terms: Alpha assays give light when donor and acceptor beads are brought close together.
Compound `CCC1CC(=O)NN=C1c1ccc2nc(-c3ccc(OCCCN(C)C)cc3)oc2c1` (stereo not drawn) [Example 62, 6-{2-[4-(3-dimethylamino-propoxy)-phenyl]-benzoxazol-6-yl}-5-ethyl-4,5-dihydro-2H-pyridazin-3-one] had a 50% effective concentration (EC50) of 552 nM.
For `CCC1CC(=O)NN=C1c1ccc2nc(-c3ccc(OCc4cnco4)cc3)oc2c1` (stereo not drawn) [Example 63, 5-ethyl-6-{2-[4-(oxazol-5-ylmethoxy)-phenyl]-benzoxazol-6-yl}-4,5-dihydro-2H-pyridazin-3-one] the value was 324 nM; for `CCC1CC(=O)NN=C1c1ccc2nc(-c3ccc(OCCN4CCOCC4)cc3)oc2c1` (stereo not drawn) [Example 64, 5-ethyl-6-{2-[4-(2-morpholin-4-yl-ethoxy)-phenyl]-benzoxazol-6-yl}-4,5-dihydro-2H-pyridazin-3-one], 237 nM; for `CCC1CC(=O)NN=C1c1ccc2nc(-c3cccc(OCc4ccccn4)c3)oc2c1` (stereo not drawn) [Example 65, 5-ethyl-6-{2-[3-(pyridin-2-ylmethoxy)-phenyl]-benzoxazol-6-yl}-4,5-dihydro-2H-pyridazin-3-one], 426 nM.
`CCC1CC(=O)NN=C1c1ccc2nc(-c3ccc(OCC(=O)OC(C)(C)C)cc3)oc2c1` (stereo not drawn) [Example 66, tert-butyl {4-[6-(4-ethyl-6-oxo-1,4,5,6-tetrahydro-pyridazin-3-yl)-benzoxazol-2-yl]-phenoxy}-acetate] gave an EC50 of 112 nM.
The result for `CCC1CC(=O)NN=C1c1ccc2nc(-c3ccc(OCC4CCN(C(=O)OC(C)(C)C)CC4)cc3)oc2c1` (stereo not drawn) [Example 67, tert-butyl 4-{4-[6-(4-ethyl-6-oxo-1,4,5,6-tetrahydro-pyridazin-3-yl)-benzoxazol-2-yl]-phenoxymethyl}-piperidine-1-carboxylate] reads 51 nM; that for `CCC1CC(=O)NN=C1c1ccc2nc(-c3ccc(OC4CCN(C(=O)OC(C)(C)C)CC4)cc3)oc2c1` (stereo not drawn) [Example 68, tert-butyl 4-{4-[6-(4-ethyl-6-oxo-1,4,5,6-tetrahydro-pyridazin-3-yl)-benzoxazol-2-yl]-phenoxy}-piperidin-1-carboxylate], 60 nM.
The compound `CC1CC(=O)NN=C1c1ccc2nc(-c3cccc(OCC4CCN(C(=O)OC(C)(C)C)CC4)c3)oc2c1` (stereo not drawn) [Example 69, tert-butyl 4-{3-[6-(4-methyl-6-oxo-1,4,5,6-tetrahydro-pyridazin-3-yl)-benzoxazol-2-yl]-phenoxymethyl}-piperidin-1-carboxylate] had an EC50 of 143 nM.
The compound `CCC1CC(=O)NN=C1c1ccc2nc(-c3ccc(OCC(=O)O)cc3)oc2c1` (stereo not drawn) [Example 70, 4-[6-(4-ethyl-6-oxo-1,4,5,6-tetrahydro-pyridazin-3-yl)-benzoxazol-2-yl]-phenoxy-acetic acid] had an EC50 of 3910 nM.
The compound `CCC1CC(=O)NN=C1c1ccc2nc(-c3ccc(OCC4CCNCC4)cc3)oc2c1` (stereo not drawn) [Example 71, 4-{4-[6-(4-ethyl-6-oxo-1,4,5,6-tetrahydro-pyridazin-3-yl)-benzoxazol-2-yl]-phenoxymethyl}-piperidine as hydrochloride] showed an EC50 above 10000 nM.
For `CCC1CC(=O)NN=C1c1ccc2nc(-c3ccc(OC4CCNCC4)cc3)oc2c1` (stereo not drawn) [Example 72, 5-ethyl-6-{2-[4-(piperidin-4-yloxy)-phenyl]-benzoxazol-6-yl}-4,5-dihydro-2H-pyridazin-3-one hydrochloride] the value was 1810 nM; for `CC1CC(=O)NN=C1c1ccc2nc(-c3cccc(OCC4CCNCC4)c3)oc2c1` (stereo not drawn) [Example 73, 5-methyl-6-{2-[3-(piperidin-4-ylmethoxy)-phenyl]-benzoxazol-6-yl}-4,5-dihydro-2H-pyridazin-3-one hydrochloride], 6770 nM; for `CCC1CC(=O)NN=C1c1ccc2nc(-c3ccc(OCC4CCN(S(C)(=O)=O)CC4)cc3)oc2c1` (stereo not drawn) [Example 74, 5-ethyl-6-{2-[4-(1-methanesulphonyl-piperidin-4-ylmethoxy)-phenyl]-benzoxazol-6-yl}-4,5-dihydro-2H-pyridazin-3-one], 240 nM.
For the compound `CCC1CC(=O)NN=C1c1ccc2nc(-c3ccc(/C=C/c4ccccc4)cc3)oc2c1` (stereo not drawn) [Example 75, 5-ethyl-6-{2-[4-styryl-phenyl]-benzoxazol-6-yl}-4,5-dihydro-2H-pyridazin-3-one], a half-maximal effect (EC50) was put at 384 nM.
On to `CCC1CC(=O)NN=C1c1ccc2nc(-c3ccc(CCc4ccccc4)cc3)oc2c1` (stereo not drawn) [Example 76, 5-ethyl-6-[2-(4-phenethyl-phenyl)-benzoxazol-6-yl]-4,5-dihydro-2H-pyridazin-3-one], for which a half-maximal response (EC50) required 245 nM.
In the case of `CCC1SC(=O)NN=C1c1ccc2nc(-c3ccccc3)oc2c1` (stereo not drawn) [Example 77, 6-ethyl-5-(2-phenyl-benzoxazol-6-yl)-3,6-dihydro-[1,3,4]thiadiazin-2-one], the EC50 worked out at 141 nM.
As for `CCC1OC(=O)NN=C1c1ccc2nc(-c3ccccc3)oc2c1` (stereo not drawn) [Example 78, 6-ethyl-5-(2-phenyl-benzoxazol-6-yl)-3,6-dihydro-[1,3,4]oxadiazin-2-one], a half-maximal response (EC50) required 61 nM.
`CC1OC(=O)NN=C1c1ccc2nc(-c3ccccc3)oc2c1` (stereo not drawn) [Example 81, 6-methyl-5-(2-phenyl-1,3-benzoxazol-6-yl)-3,6-dihydro-2H-1,3,4-oxadiazin-2-one] returned an EC50 of 31 nM.
In turn, `CC1CC(=O)NN=C1c1ccc2nc(-c3ccccc3)oc2c1` (stereo not drawn) [Example 82, 5-methyl-6-(2-phenyl-benzoxazol-6-yl)-4,5-dihydro-2H-pyridazin-3-one] had a half-maximal effective concentration (EC50) of 189 nM.
Turning to `COc1ccc(-c2nc3ccc(C4=NNC(=O)CC4C)cc3o2)cc1` (stereo not drawn) [Example 83, 6-[2-(4-methoxy-phenyl)-benzoxazol-6-yl]-5-methyl-4,5-dihydro-2H-pyridazin-3-one], the EC50 amounted to 94 nM.
`CC1CC(=O)NN=C1c1ccc2nc(-c3ccc(Cl)cc3)oc2c1` (stereo not drawn) [Example 84, 6-[2-(4-chloro-phenyl)-benzoxazol-6-yl]-5-methyl-4,5-dihydro-2H-pyridazin-3-one]: the EC50 stood at 132 nM.
With `COc1cccc(-c2nc3ccc(C4=NNC(=O)CC4C)cc3o2)c1` (stereo not drawn) [Example 85, 6-[2-(3-methoxy-phenyl)-benzoxazol-6-yl]-5-methyl-4,5-dihydro-2H-pyridazin-3-one], a half-maximal response (EC50) required 334 nM.
As for `COc1ccccc1-c1nc2ccc(C3=NNC(=O)CC3C)cc2o1` (stereo not drawn) [Example 86, 6-[2-(2-methoxy-phenyl)-benzoxazol-6-yl]-5-methyl-4,5-dihydro-2H-pyridazin-3-one], a half-maximal effect (EC50) was put at 1150 nM.
In the case of `Cc1ccc(-c2nc3ccc(C4=NNC(=O)CC4C)cc3o2)s1` (stereo not drawn) [Example 87, 5-methyl-6-[2-(5-methyl-thiophen-2-yl)-benzoxazol-6-yl]-4,5-dihydro-2H-pyridazin-3-one], the EC50 came out at 100 nM.
The result for `CC1CC(=O)NN=C1c1ccc2nc(-c3cccc(Cl)c3)oc2c1` (stereo not drawn) [Example 88, 6-[2-(3-chloro-phenyl)-benzoxazol-6-yl]-5-methyl-4,5-dihydro-2H-pyridazin-3-one] reads 260 nM; that for `CC1CC(=O)NN=C1c1ccc2nc(-c3ccccc3Cl)oc2c1` (stereo not drawn) [Example 89, 6-[2-(2-chloro-phenyl)-benzoxazol-6-yl]-5-methyl-4,5-dihydro-2H-pyridazin-3-one], 415 nM.
On to `COC(=O)c1ccc(-c2nc3ccc(C4=NNC(=O)CC4C)cc3o2)cc1` (stereo not drawn) [Example 90, methyl 4-[6-(4-methyl-6-oxo-1,4,5,6-tetrahydro-pyridazin-3-yl)-benzoxazol-2-yl]-benzoate], for which a half-maximal effect (EC50) was put at 763 nM.

A word on the EC50: it is the concentration at which the effect is half-maximal. The low end stands for a more potent agent, the high end for a less potent agent.
